Measured values: patent US9562035B2, “Benzamide derivative useful as FASN inhibitors for the treatment of cancer” (Janssen Pharmaceutica NV, priority 2013, dated 2017)

Key:
A2780 ovarian cells [1] = test: A2780 Ovarian Cell Proliferation Assay in Lipid Reduced Medium, with Palmitate (control); assay type: cell-based; details: Homo sapiens, A2780; lipid reduced medium, 25 μM palmitate, 96 h, MTT; read-out: Proliferation A2780 with Palmitate pIC50 (converted)
How it was run: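 Read-out was MTT absorbance at 544 nm after 96 h at 37 °C. Cells grown overnight in RPMI1640/10% FCS were moved to 10% lipid-reduced serum with compound plus palmitate (final 25 μM, 0.2% fatty-acid-free BSA, 0.2% DMSO). IC50 came from least-squares curve fitting, expressed as −log(IC50).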

[2] = target: T1, hFASN enzyme (full length) (Homo sapiens, UniProt P49327); test: Fatty Acid Synthase (FASN) Inhibition Scintillation Proximity Assay; assay type: biochemical; details: for IC50: mean where tested more than once, ~ = standard error of pIC50 larger than 0.5; for inhibition at 10 µM: read-out: FASN % Effect @1E−05M
T1 construct: 10 μL hFASN enzyme (full length, 300 ng, purified in house); made in house
How it was run: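 Eight compound concentrations (0.01–30 μM) tested in pH 7.5 phosphate buffer with DTT; human full-length enzyme converted [3H]-acetyl-CoA plus malonyl-CoA, with NADPH, over 60 min at room temperature. Hydrophobic [3H]-palmitate detected by bead proximity scintillation imaging; control-normalised data fitted for IC50/pIC50.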

[3] = target: T2, FASN Keto-reductase Domain (Homo sapiens, UniProt P49327); test: Fatty Acid Synthase Keto-Reductase Domain (FASN KR) Inhibition; assay type: biochemical; details: mean where tested more than once; read-out: FASN K-R Domain pIC50 (converted)
T2 construct: 10 μL hFASN enzyme (full length, 300 ng, purified in house) and 360 μM NADPH; made in house
How it was run: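 Keto-reductase activity followed as NADPH consumption (A340 drop between 0 and 20 min, room temperature) using in-house full-length hFASN, 360 μM NADPH and ethyl acetoacetate substrate (180 mM stock), pH 7.5 phosphate buffer.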

A2780 ovarian cells [4] = test: A2780 Ovarian Cell Proliferation Assay in Lipid Reduced Medium, without Palmitate; assay type: cell-based; details: Homo sapiens, A2780; lipid reduced medium, without palmitate, 96 h, MTT; read-out: Proliferation A2780 w/o Palmitate pIC50 (converted)
How it was run: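 A2780 cells were seeded in 10% FCS medium and switched next day to 10% lipid-reduced serum without palmitate. Compounds at 0.01–30 μM were added with 0.2% DMSO, 0.2% fatty-acid-free BSA and 0.25% ethanol final. After 96 h, MTT absorbance at 544 nm was normalized to plate controls, and IC50/pIC50 came from a 4-parameter logistic fit.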

T2 sequence (P49327 whole entry, the tested form may be a part): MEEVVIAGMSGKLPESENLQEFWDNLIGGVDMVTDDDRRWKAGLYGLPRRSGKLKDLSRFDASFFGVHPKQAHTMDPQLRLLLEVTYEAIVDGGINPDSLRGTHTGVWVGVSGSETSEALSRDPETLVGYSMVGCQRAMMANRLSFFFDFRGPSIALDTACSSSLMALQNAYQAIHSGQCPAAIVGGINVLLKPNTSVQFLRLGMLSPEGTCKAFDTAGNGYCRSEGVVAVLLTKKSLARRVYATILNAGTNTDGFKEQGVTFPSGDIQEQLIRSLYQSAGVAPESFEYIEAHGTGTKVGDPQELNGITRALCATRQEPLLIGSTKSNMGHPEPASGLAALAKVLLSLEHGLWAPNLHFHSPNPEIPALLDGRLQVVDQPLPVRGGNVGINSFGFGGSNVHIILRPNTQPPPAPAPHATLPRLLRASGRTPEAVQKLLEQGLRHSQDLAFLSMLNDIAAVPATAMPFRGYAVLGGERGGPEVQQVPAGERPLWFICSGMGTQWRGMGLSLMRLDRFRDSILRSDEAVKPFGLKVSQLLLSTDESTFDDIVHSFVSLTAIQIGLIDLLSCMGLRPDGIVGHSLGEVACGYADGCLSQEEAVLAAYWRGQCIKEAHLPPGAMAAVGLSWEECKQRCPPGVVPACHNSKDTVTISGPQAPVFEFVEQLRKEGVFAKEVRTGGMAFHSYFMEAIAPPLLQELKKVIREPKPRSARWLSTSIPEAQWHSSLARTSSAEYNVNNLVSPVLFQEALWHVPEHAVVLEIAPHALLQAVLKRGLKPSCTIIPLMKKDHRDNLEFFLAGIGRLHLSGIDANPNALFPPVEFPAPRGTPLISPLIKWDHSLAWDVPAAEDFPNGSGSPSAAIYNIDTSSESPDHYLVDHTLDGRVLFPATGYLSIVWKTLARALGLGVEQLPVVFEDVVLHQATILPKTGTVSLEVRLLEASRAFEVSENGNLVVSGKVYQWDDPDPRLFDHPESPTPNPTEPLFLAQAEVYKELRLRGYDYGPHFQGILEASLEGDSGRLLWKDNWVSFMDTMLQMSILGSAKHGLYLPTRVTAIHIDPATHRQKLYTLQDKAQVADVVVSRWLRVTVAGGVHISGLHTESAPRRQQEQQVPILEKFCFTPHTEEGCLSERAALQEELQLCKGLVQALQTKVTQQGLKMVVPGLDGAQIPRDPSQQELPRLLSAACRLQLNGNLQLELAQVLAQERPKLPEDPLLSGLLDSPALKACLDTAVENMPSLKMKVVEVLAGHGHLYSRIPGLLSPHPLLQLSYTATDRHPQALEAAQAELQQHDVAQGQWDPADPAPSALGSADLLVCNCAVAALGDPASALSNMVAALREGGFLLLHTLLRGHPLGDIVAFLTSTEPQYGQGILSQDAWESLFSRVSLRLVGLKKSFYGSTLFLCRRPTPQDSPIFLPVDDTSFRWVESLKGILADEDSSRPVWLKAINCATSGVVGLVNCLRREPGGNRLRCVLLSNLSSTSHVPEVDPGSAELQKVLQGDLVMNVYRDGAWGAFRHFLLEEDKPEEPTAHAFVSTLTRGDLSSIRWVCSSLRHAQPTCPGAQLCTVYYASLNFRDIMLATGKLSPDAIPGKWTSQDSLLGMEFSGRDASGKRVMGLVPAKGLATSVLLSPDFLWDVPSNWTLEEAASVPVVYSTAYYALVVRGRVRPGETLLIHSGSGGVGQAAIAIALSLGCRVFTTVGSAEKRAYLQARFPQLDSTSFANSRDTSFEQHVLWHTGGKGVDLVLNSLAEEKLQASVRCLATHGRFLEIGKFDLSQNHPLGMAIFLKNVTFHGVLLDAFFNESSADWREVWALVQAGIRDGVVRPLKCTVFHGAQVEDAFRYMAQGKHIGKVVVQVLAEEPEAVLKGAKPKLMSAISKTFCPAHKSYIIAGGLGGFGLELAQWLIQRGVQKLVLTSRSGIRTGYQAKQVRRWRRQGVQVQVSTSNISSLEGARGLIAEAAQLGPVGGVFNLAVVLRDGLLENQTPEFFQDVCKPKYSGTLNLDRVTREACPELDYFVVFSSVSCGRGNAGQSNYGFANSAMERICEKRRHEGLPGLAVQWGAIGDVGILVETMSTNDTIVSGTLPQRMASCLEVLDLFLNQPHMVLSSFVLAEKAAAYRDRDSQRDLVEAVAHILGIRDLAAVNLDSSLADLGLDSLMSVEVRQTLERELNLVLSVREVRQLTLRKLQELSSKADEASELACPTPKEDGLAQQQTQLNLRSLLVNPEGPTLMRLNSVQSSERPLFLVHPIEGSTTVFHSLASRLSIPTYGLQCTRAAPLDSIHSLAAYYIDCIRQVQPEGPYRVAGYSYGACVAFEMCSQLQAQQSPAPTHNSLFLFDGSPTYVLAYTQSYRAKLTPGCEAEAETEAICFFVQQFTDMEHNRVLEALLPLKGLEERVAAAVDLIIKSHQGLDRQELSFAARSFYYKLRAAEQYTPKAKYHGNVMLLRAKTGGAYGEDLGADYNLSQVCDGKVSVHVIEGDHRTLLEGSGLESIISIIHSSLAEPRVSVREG
T1 sequence (P49327 whole entry): as the sequence (P49327 whole entry, the tested form may be a part) above

SMILES | IC50 (A2780 ovarian cells [1]) [nM] | IC50 [2] [nM] | inhibition at 10 µM [2] [%] | IC50 [3] [nM] | IC50 (A2780 ovarian cells [4]) [nM]
Cc1ccc(C(=O)N2CC(c3ccc(-c4ccnn4C)cc3)C2)cc1NC(=O)c1ccc(NC2CCC2)nc1 [Compound 62, 6-(cyclobutylamino)-N-(2-methyl-5-(3-(4-(1-methyl-1H-pyrazol-5-yl)phenyl)azetidine-1-carbonyl)phenyl)nicotinamide] | 4170 | 16.2 | 103 | 51.3 | 74.1
Cc1ccc(C(=O)N2CCC(c3ccc(-c4cn[nH]c4)cc3)CC2)cc1NC(=O)c1ccc(NC(C)C)nc1 [Compound 42, N-(5-(4-(4-(1H-pyrazol-4-yl)phenyl)piperidine-1-carbonyl)-2-methylphenyl)-6-(isopropylamino)nicotinamide] | > 10000 | 21.4 | 106 | 34.7 | 102
COc1ccc(C(=O)N2CC(c3ccc(-c4cnn(C)c4)cc3)C2)cc1NC(=O)c1ccc(N2CCOCC2)nc1 [Compound 184, N-(2-methoxy-5-(3-(4-(1-methyl-1H-pyrazol-4-yl)phenyl)azetidine-1-carbonyl)phenyl)-6-morpholinonicotinamide] | > 10000 | 36.3 | 105 | 123 | 58.9
Cc1ccc(C(=O)N2CCC(c3ccc(-c4cnn(C)c4)cc3)CC2)cc1NC(=O)c1cnc(NC2CCC2)nc1 [Compound 162, 2-(cyclobutylamino)-N-(2-methyl-5-(4-(4-(1-methyl-1H-pyrazol-4-yl)phenyl)piperidine-1-carbonyl)phenyl)pyrimidine-5-carboxamide] | ~7590 | 20 | 101 | 32.4 | 8.13
Cc1ccc(C(=O)N2CC(c3ccc(-c4cnn(C)c4)cc3)C2)cc1NC(=O)c1ccc(NC(C)C)nc1 [Compound 24, 6-(isopropylamino)-N-(2-methyl-5-(3-(4-(1-methyl-1H-pyrazol-4-yl)phenyl)azetidine-1-carbonyl)phenyl)nicotinamide] | > 10000 | 33.9 | 111 | 38.9 | 85.1
Cc1ccc(C(=O)N2CCC(c3ccc(-c4cnn(C)c4)cc3)CC2)cc1NC(=O)c1ccc(Cl)cc1Cl [Compound 122, 2,4-dichloro-N-(2-methyl-5-(4-(4-(1-methyl-1H-pyrazol-4-yl)phenyl)piperidine-1-carbonyl)phenyl)benzamide] | > 10000 | 18.6 | 101 | 75.9 | 117
Cc1ccc(C(=O)N2CCC(c3ccc(-c4cnn(C)c4)cc3)CC2)cc1NC(=O)C1CCN(CCC(C)C)C1 (stereo not shown) [Compound 195, 1-isopentyl-N-(2-methyl-5-(4-(4-(1-methyl-1H-pyrazol-4-yl)phenyl)piperidine-1-carbonyl)phenyl)pyrrolidine-3-carboxamide] | 9120 | 69.2 | 101 | 191 | 110
Cc1ccc(C(=O)N2CCC(c3ccc(-c4cnn(C)c4)cc3)CC2)cc1NC(=O)c1ccc(F)cc1 [Compound 116, 4-fluoro-N-(2-methyl-5-(4-(4-(1-methyl-1H-pyrazol-4-yl)phenyl)piperidine-1-carbonyl)phenyl)benzamide] | > 10000 | 43.7 | 101 | 93.3 | 126
COc1cccc(-c2ccc(C3CCN(C(=O)c4ccc(C)c(NC(=O)c5ccc(NC(C)C)nc5)c4)CC3)cc2)c1 [Compound 201, 6-(isopropylamino)-N-(5-(4-(3′-methoxy-[1,1′-biphenyl]-4-yl)piperidine-1-carbonyl)-2-methylphenyl)nicotinamide] | 933 | 214 | 86 | 380 | 513
Cc1ccc(C(=O)N2CCC(c3ccc(-c4cnn(C)c4)cc3)CC2)cc1NC(=O)C1CN(C2CCC(C)C2)C1 (stereo not shown) [Compound 193, N-(2-methyl-5-(4-(4-(1-methyl-1H-pyrazol-4-yl)phenyl)piperidine-1-carbonyl)phenyl)-1-(3-methylcyclopentyl)azetidine-3-carboxamide] | 7080 | 60.3 | 109 | 178 | 148
Cc1ccc(C(=O)N2CCC(c3ccc4ccncc4c3)CC2)cc1NC(=O)c1ccc(NC(C)C)nc1 [Compound 28, 6-(isopropylamino)-N-(5-(4-(isoquinolin-7-yl)piperidine-1-carbonyl)-2-methylphenyl)nicotinamide] | 2450 | 174 | 101 | 282 | ~204
Cc1ccc(C(=O)N2CCC(c3ccc(-c4cnn(C)c4)cc3)CC2)cc1NC(=O)c1ccc(C#N)cc1F [Compound 129, 4-cyano-2-fluoro-N-(2-methyl-5-(4-(4-(1-methyl-1H-pyrazol-4-yl)phenyl)piperidine-1-carbonyl)phenyl)benzamide] | > 10000 | 22.9 | 104 | 34.7 | 21.4
Cc1ccc(C(=O)N2CC(c3ccc(-c4cnn(C)c4)cc3)C2)cc1NC(=O)c1ccc(N2CCCC2)nc1 [Compound 106, N-(2-methyl-5-(3-(4-(1-methyl-1H-pyrazol-4-yl)phenyl)azetidine-1-carbonyl)phenyl)-6-(pyrrolidin-1-yl)nicotinamide] | > 15100 | 10.7 | 113 | 24.5 | 79.4

Next, values leading:

IC50 (A2780 ovarian cells [1]) [nM] | IC50 [2] [nM] | inhibition at 10 µM [2] [%] | IC50 [3] [nM] | IC50 (A2780 ovarian cells [4]) [nM] | SMILES
> 10000 | 269 | 101 | 631 | 275 | CCCN1CC(C(=O)Nc2cc(C(=O)N3CCC(c4ccc(-c5cnn(C)c5)cc4)CC3)ccc2C)C1 [Compound 208, N-(2-methyl-5-(4-(4-(1-methyl-1H-pyrazol-4-yl)phenyl)piperidine-1-carbonyl)phenyl)-1-propylazetidine-3-carboxamide]
5010 | 75.9 | 109 | 245 | 91.2 | Cc1ccc(C(=O)N2CCC(c3ccc(-c4cnn(CC5CCC5)c4)cc3)CC2)cc1NC(=O)c1ccc(NC(C)C)nc1 [Compound 221, N-(5-(4-(4-(1-(cyclobutylmethyl)-1H-pyrazol-4-yl)phenyl)piperidine-1-carbonyl)-2-methylphenyl)-6-(isopropylamino)nicotinamide]
~1860 | 316 | 104 | 1230 | ~257 | Cc1ccc(C(=O)N2CCC(c3ccc(-c4cnn(CCN(C)C)c4)cc3)CC2)cc1NC(=O)c1ccc(NC(C)C)nc1 [Compound 253, N-(5-(4-(4-(1-(2-(dimethylamino)ethyl)-1H-pyrazol-4-yl)phenyl)piperidine-1-carbonyl)-2-methylphenyl)-6-(isopropylamino)nicotinamide]
> 10000 | 25.7 | 112 | 58.9 | ~22.4 | Cc1ccc(C(=O)N2CCC(c3ccc(-c4cnn(CCO)c4)cc3)CC2)cc1NC(=O)c1ccc(NC(C)C)nc1 [Compound 267, N-(5-(4-(4-(1-(2-hydroxyethyl)-1H-pyrazol-4-yl)phenyl)piperidine-1-carbonyl)-2-methylphenyl)-6-(isopropylamino)nicotinamide]
> 15100 | 53.7 | 92 | 55 | 135 | CC(C)Nc1ccc(C(=O)Nc2cc(C(=O)N3CC(c4ccc(-c5ccc6cnccc6c5)cc4)C3)ccc2Cl)cn1 [Compound #75, N-(2-chloro-5-(3-(4-(isoquinolin-6-yl)phenyl)azetidine-1-carbonyl)phenyl)-6-(isopropylamino)nicotinamide]
1580 | 339 | 79 | 457 | 589 | Cc1ccc(C(=O)N2CCC(c3ccc(-c4ccccc4)cc3)CC2)cc1NC(=O)c1ccc(NC(C)C)nc1 [Compound 225, N-(5-(4-([1,1′-biphenyl]-4-yl)piperidine-1-carbonyl)-2-methylphenyl)-6-(isopropylamino)nicotinamide]
> 10000 | 67.6 | 110 | 174 | 95.5 | Cc1ccc(C(=O)N2CCC(c3ccc(-c4cnn(C)c4)cc3)CC2)cc1NC(=O)C1CCN(C(=O)C2CC2)C1 (stereo not shown) [Compound 220, 1-(cyclopropanecarbonyl)-N-(2-methyl-5-(4-(4-(1-methyl-1H-pyrazol-4-yl)phenyl)piperidine-1-carbonyl)phenyl)pyrrolidine-3-carboxamide]
